Laboratory results as given in US11549123B2, “Plant EPSP synthases and methods of use” (PIONEER HI-BRED INTERNATIONAL, INC., priority 2015, dated 2023).
Where a chain is given by its changes, count along the chain named.

Columns and labels:
Format in all cases: biochemical
[1] = biological target: T1, Zea mays EPSPS variant Zm-H6 (868-H6) with A76V (H6-A76V) (Zea mays, UniProt O24566, A1R/A3W/A415G/A71Q/A75V/D401G/E301S/E390G/G101A/I207L/K83R/L97C/T278A/T360S/T440Q/V437R); assay: Rapid two-rate method for (kcat/KM)*KI, H6-A76V; settings: [E] 0.07 uM, [Gly] 1000 uM
T1 sequence (O24566 with tags, fused parts or gaps A1R/A3W/A71Q/A75V/K83R/L97C/G101A/I207L/T278A/E301S/T360S/E390G/D401G/A415G/V437R/T440Q): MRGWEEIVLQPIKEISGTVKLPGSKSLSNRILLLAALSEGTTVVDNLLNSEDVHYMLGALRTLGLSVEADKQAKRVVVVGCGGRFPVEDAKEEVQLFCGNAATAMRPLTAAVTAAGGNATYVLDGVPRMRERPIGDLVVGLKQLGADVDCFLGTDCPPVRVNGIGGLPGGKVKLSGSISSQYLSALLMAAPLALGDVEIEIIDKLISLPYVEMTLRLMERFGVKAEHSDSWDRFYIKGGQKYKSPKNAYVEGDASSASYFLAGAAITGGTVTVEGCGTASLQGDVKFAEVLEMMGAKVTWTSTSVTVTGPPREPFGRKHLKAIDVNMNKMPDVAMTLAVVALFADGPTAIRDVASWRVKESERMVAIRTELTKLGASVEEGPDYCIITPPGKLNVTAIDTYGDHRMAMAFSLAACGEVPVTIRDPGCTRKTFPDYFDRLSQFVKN
Text: (§1) There are several practical considerations for accurately estimating (kcat/KM)*KI with the rapid method. […] 2) The inhibitor concentration must be adjusted so as to obtain a degree of inhibition that minimally amplifies the error in the term v0-vi in Equation 3. If inhibition is too little, v0-vi will be small, and the error in the multiplier vi×v0/(v0-vi) will be large. […] 3) Substrate concentration should be set at the approximate KM of the parental variant(s), subject to the sensitivity of the assay. High substrate concentration obscures sensitivity to the inhibitor and reduces stringency for capturing improvements in KM. Depending on the necessity for speed, there exists opportunity for customizing enzyme and inhibitor concentrations. […] The rapid method was repeated for those and obtained data that correlated better with data obtained by substrate saturation analysis. For screening purposes however, that correlation step is not necessary. Conditions can be set so that variants with a pre-determined minimal fitness level are accurately quantified.
(§2) In Table 15, parameters above the heavy line for the rapid method were obtained under standard conditions. For variants shown below the heavy line, the rapid analysis was repeated with enzyme or glyphosate concentrations adjusted as needed to generate sufficient signal within the limits for linear initial rates.

[2] = biological target: T2, Zea mays EPSPS variant Zm-P107S (Zea mays, UniProt O24566, P106S); assay: Rapid two-rate method for (kcat/KM)*KI, Zm-P107S
T2 construct: native maize plus P107S; E. coli BL21(DE3), Ni-NTA purified
T2 sequence (O24566 with tags, fused parts or gaps P106S): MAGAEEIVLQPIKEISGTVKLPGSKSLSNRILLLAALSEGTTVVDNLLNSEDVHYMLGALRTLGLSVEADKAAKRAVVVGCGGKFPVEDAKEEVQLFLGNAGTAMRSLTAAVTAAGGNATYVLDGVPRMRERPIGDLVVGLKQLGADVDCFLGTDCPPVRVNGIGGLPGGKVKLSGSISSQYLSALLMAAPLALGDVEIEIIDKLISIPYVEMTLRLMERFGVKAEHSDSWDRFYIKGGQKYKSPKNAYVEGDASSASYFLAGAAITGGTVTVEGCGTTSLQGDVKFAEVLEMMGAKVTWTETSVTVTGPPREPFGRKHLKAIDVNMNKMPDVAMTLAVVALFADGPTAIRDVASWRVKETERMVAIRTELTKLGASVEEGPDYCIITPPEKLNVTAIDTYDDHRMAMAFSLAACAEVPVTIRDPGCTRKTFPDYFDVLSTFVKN
Text: as §1, §2

[3] = biological target: T3, Zea mays EPSPS variant Zm-H6 (868-H6) with A69V (H6-A69V) (Zea mays, UniProt O24566, A1R/A3W/A415G/A68V/A71Q/D401G/E301S/E390G/G101A/I207L/K83R/L97C/T278A/T360S/T440Q/V437R); assay: Substrate saturation kinetic analysis with glyphosate, H6-A69V
T3 sequence (O24566 with tags, fused parts or gaps A1R/A3W/A68V/A71Q/K83R/L97C/G101A/I207L/T278A/E301S/T360S/E390G/D401G/A415G/V437R/T440Q): T1 sequence (O24566 with tags, fused parts or gaps A1R/A3W/A71Q/A75V/K83R/L97C/G101A/I207L/T278A/E301S/T360S/E390G/D401G/A415G/V437R/T440Q) with A69V, V76A

O=C(O)CNCP(=O)(O)O [glyphosate, N-phosphonomethylglycine]
(kcat/KM)*KI [1]: 2418 | (kcat/KM)*KI ([2]; rapid method repeated, [E] 0.007 uM, [Gly] 5 uM): 40 | (kcat/KM)*KI ([2]; rapid method, [E] 0.07 uM, [Gly] 1000 uM): 72 | Ki [3]: 320 µM | (kcat/KM)*KI ([3]; substrate saturation, H6-A69V): 2440
